# Assay results: patent US10526580B2, “Differentiated cell population of endothelial cells derived from human pluripotent stem cells, composition, system, kit and uses thereof” (BIOCANT-ASSOCIAÇÃO DE TRANSFERÊNCIA DE TECNOLOGIA, priority 2012, dated 2020)
# Tests used:
# Format in all cases: cell-based, human
# HUAECs = test: 7-Cyclo in PDMS microfluidic system, static or flow (qRT-PCR, ELISA); settings: flow 20 dyne/cm2, 1 μM for 24 h
# Procedure: For the 7-cyclo studies the flow experiments were carried out in a microfluidic system developed by us. The microfluidic device was obtained using a cylindrical mold of 20 Gauge. Polydimethylsiloxane (PDMS) (Sylgard 184 Silicone elastomere base) was mixed at a 10:1 ratio (w/w) with curing agent (Sylgard 184 Silicon Elastomer Curing Agent) and the solution was poured onto a mold (20 gauge needle laid on a plastic dish) and cured at 80° C. for about 3 h. The microchannel was cut to 0.5 cm length (900 μm inner diameter) and treated with Plasma Clean (Electronic Diener Femto Plasma Surface Technology version 5) for 2 min with argon gas (2 mBar) before immersing it in a solution of 0.1% gelatin. […]
# Evaluation of the levels of vascular injury by specific markers. ELISA kits analyzed supernatants collected from the shear stress experiments for vWF and vWFpp (Gen-Probe GTI Diagnostic) and ADMA (Enzo Life Sciences), according to manufacturer's recommendations.
# To evaluate the effects of 7-Cyclo in flow conditions, hESC-derived ECs were cultured in a poly(dimethylsiloxane) (PDMS) microfluidic system with cylindrical channels for 7 days at 20 dyne/cm2 (FIG. 5A). […] At day 7, cells were exposed to EGM-2 medium supplemented with 1 μM of 7-Cyclo for 24 h, and finally analyzed at morphological, genetic and secretion levels. […]
# [1] = test system: microvessels formed by HAECs; test: Matrigel assay, disruption of vascular networks; settings: 1 μM, 20 h, on top of Matrigel
# Procedure: (§1) To test the 7-Cyclo properties in the disruption of vascular networks, microvessels of hESC-derived ECs, HUAECs and HAECs were formed on top of Matrigel and then exposed to the drug for 20 h.
# (§2) A 24-well plate was coated with Matrigel (0.4 mL, BD Biosciences) per well and incubated at 37° C. for 30 min. Cells were seeded on top of the polymerized Matrigel at a concentration of 1×10^5 cells per 300 μL of EGM-2 medium. After 1 h of incubation at 37° C., an extra 1 mL of EGM-2 was added. After 12 h, medium supplemented with 7-Cyclo (0, 0.1 or 1 μM) was added. Cord formation was evaluated by phase contrast microscopy (Carl Zeiss International, Germany), at time 0, 3 h and 20 h after 7-Cyclo addition.
# [2] = test system: microvessels of hESC-derived ECs; test: Matrigel assay, disruption of vascular networks; settings: 1 μM, 20 h, on top of Matrigel
# Procedure: as §1, §2
# [3] = test system: microvessels formed by HUAECs; test: Matrigel assay, disruption of vascular networks; settings: 1 μM, 20 h, on top of Matrigel
# Procedure: as §1, §2
# [4] = test system: kinase activity of HUAECs; test: Kinase-Glo Luminescence Kinase Assay of cells; settings: 24 h incubation, 0.1 or 1 μM
# Procedure: (§3) The kinase activity of the hESC-derived ECs and HUAECs was assessed by luminescence (signal is inversely correlated with the level of kinase activity) in the absence or presence of the compound 7-Cyclo (FIG. 6D).
# (§4) The kinase activity of cells was measured by a Kinase-Glo® Luminescence Kinase Assay (Promega). Cells incubated with 7-Cyclo for 24 h were treated with the kinase reagent from the kit and luminescence acquired using a Spectra Max Gemini luminometer. The luminescence signal is correlated with the amount of ATP present and its inversely correlated with the amount of kinase activity.
# [5] = test system: kinase activity of hESC-derived ECs; test: Kinase-Glo Luminescence Kinase Assay of cells; settings: 24 h incubation, 0.1 or 1 μM
# Procedure: as §3, §4
# [6] = test system: hESC-derived ECs versus HUAECs; test: High-throughput screening of LOPAC library, PrestoBlue cell viability, hESC-derived ECs versus HUAECs; settings: LOPAC screen, 4.5 μM, 4 days, PrestoBlue assay
# Procedure: High-throughput screening (HTS). HUAECS (Lonza) and hESC-derived ECs were cultured in EGM-2 medium while human anterior cruciate ligament cells (ACL cells) were cultured in Dulbecco's modified Eagle's medium (DMEM; PAA) supplemented with 10% FBS, 0.2 mM ascorbic acid 2-phosphate magnesium salt (Sigma Aldrich), […] streptomycin and 100 U/mL penicillin (Life Technologies). ACL cells were isolated from patients that have signed an informed consent form, in compliance with the Dutch legislation. The ethical committee of Medisch Spectrum Twente Hospital approved the collection.
# The LOPAC library (Sigma-Aldrich) was used to screen embryonic endothelial-specific cytotoxic compounds. The compounds were solubilized in DMSO. The final compound concentration used in the screen was 4.5 μM in a final volume of 200 μL per well (96-well plate). HUAECs, hESC-derived EC and ACL cells were seeded at 16,000 cells/well (HUAECs and hESC-derived ECs) and 5,000 cells/well (ACL cells) and allowed to reach near confluence (approximately two days). After two days, medium was exchanged and test compounds and controls were added to the 96-well plates (all wells contained 0.25% (v/v) DMSO). After 4 days of incubation, cell viability was assessed using a PrestoBlue (Invitrogen) assay. This assay is based on a resazurin-based solution that indicates the reducing power of living cells and therefore measures indirectly their number. For each measurement, cell medium was removed and the PrestoBlue solution (10%) was added for 3 h at 37° C. upon which the absorbance was measured at 560-590 nm.
# Disruption of vascular development has been directly correlated with prenatal loss, malformations and neurodevelopmental problems^41-44. […] The library was screened at a single dosage of 4.5 μM in a volume of 200 μL per well of EGM-2 medium, containing 0.25% DMSO (v/v). […] Six compounds (danazol, chlorpromazine hydrochloride, ellipticine, 3′,4′-dichlorobenzamil, fluphenazine dihydrochloride and 7-cyclopentyl-5-(4-phenoxy)phenyl-7H-pyrrolo[2,3-d]pyrimidin-4-ylamine) affected cell viability in both cells by a difference of 20% (FIG. 4B). The six compounds belong to different classes: cell cycle, ion pumps, dopamine pathway, phosphorylation and hormone signaling. The compounds selected from the primary screen were then tested against hESC-derived ECs and HUAECs at eight different concentrations to obtain a dose-response curve (FIG. 4C and FIG. 14).
compound,measurement,setting,value
"Nc1ncnc2c1c(-c1ccc(Oc3ccccc3)cc1)cn2C1CCCC1 [7-Cyclo, 7-cyclopentyl-5-(4-phenoxy)phenyl-7H-pyrrolo[2,3-d]pyrimidin-4-ylamine]",down-regulation of DDAH-1 and DDAH-2,HUAECs,No down-regulation
same,expression of inflammatory genes,HUAECs,only ICAM-1 and eNOS genes were up-regulated
same,effect on network length and number of sprouts in microvessels,[1],negligible effect
same,network length and number of sprouts in microvessels,[2],statistically significant reduction
same,effect on network length and number of sprouts in microvessels,[3],negligible effect
same,kinase activity versus time zero (luminescence),[4],no significant decrease
same,kinase activity versus time zero (luminescence),[5],decreased significantly
same,difference in cell viability between hESC-derived ECs and HUAECs,[6],20%
